Patent publication US12729377B2, “RNAi agents and compositions for inhibiting expression of angiopoietin-like 3 (ANGPTL3), and methods of use” (Arrowhead Pharmaceuticals, Inc., priority 2017, dated 2026)
In the oligonucleotide strings, read from the 5' end, every base follows the letter of its sugar. An asterisk marks phosphorothioate; unmarked linkages are phosphodiester. Other units and linkages are bracketed, terminal groups are in braces. A string of capitals states the bases alone. {NAG37} = N-acetyl-galactosamine tridentate targeting ligand (NAG37); [invAb] = inverted abasic unit; m = 2'-O-methyl; f = 2'-fluoro

Tests used:
ANGPTL3 gene [1] = test: Example 10: serum triglycerides in mice; assay type: in vivo; conditions: 0.5 mg/kg single SC injection day 1, female C57bl/6 mice, n=3, ratio to D5W control
Procedure: (§1) To assess the in vivo activity of further ANGPTL3 RNAi agents that are designed to target position 304 on the ANGPTL3 gene, six- to eight-week-old female C57bl/6 mice were used. Pre-dose serum samples were taken at day −1 after a four hour fast. At day 1, each mouse was given a single subcutaneous administration of 200 μl containing 0.5 mg/kg (mpk) of an ANGPTL3 RNAi agent in D5W (dextrose in 5% water), or control (D5W) with no RNAi agent, according to the dosing groups recited in Table 47.
(§2) Each of the RNAi agents included a modified sequence and an N-acetyl-galactosamine-containing targeting ligand conjugated to the 5′ terminal end of the sense strand. (See Tables 3, 4, and 5 for modified sequences and targeting ligand structures). As noted above, each of the ANGPTL3 RNAi agents dosed in this study included nucleotide sequences designed to target the ANGPTL3 gene at position 304. The injections were performed between the skin and muscle (i.e. subcutaneous injections) into the loose skin over the neck and shoulder area. Three (3) mice in each group were tested (n=3). Serum was collected on days 8, 15, 22, 29, and for some groups on day 36 (i.e., Groups 1, 2, and 9-13 only). Mice were fasted for four hours prior to each collection. ANGPTL3 protein levels in serum were measured by ELISA assay (R&D Systems), according to the manufacturer's recommendations. Triglycerides, total cholesterol, high-density lipoprotein (HDL), and low-density lipoprotein (LDL) in serum were measured on a Cobas® Integra 400 (Roche Diagnostics), according to the manufacturer's recommendations.
(§3) The ANGPTL3 protein levels, triglyceride levels, total cholesterol levels, HDL levels, and LDL levels for each animal were normalized. For normalization, the level of ANGPTL3 protein, triglyceride, HDL, and total cholesterol, respectively, for each animal at a time point, was divided by the pre-treatment level of expression in that animal (in this case at day −1) to determine the ratio of expression “normalized to pre-treatment.” Expression at a specific time point was then normalized to the D5W control group by dividing the “normalized to pre-treatment” ratio for an individual animal by the mean “normalized to pretreatment” ratio of all mice in the D5W control group.

ANGPTL3 gene [2] = test: Example 10: serum LDL in mice; assay type: in vivo, C57bl/6 mice; conditions: 0.5 mg/kg sc
Procedure: as §1, §2, §3

ANGPTL3 protein = test: Example 10: serum ANGPTL3 protein by ELISA in mice; assay type: in vivo; conditions: 0.5 mg/kg single SC injection day 1, female C57bl/6 mice, n=3, ratio to D5W control
Procedure: as §1, §2, §3

ANGPTL3 gene [3] = test: Example 10: serum total cholesterol in mice; assay type: in vivo; conditions: 0.5 mg/kg single SC injection day 1, female C57bl/6 mice, n=3, ratio to D5W control
Procedure: as §1, §2, §3

ANGPTL3 gene [4] = test: Example 10: serum HDL in mice; assay type: in vivo; conditions: 0.5 mg/kg single SC injection day 1, female C57bl/6 mice, n=3, ratio to D5W control
Procedure: as §1, §2, §3

AD05791: RNAi agent duplex: antisense AM07624-AS, sense AM07234-SS (antisense mU*fA*mCfUmGfAmUfCmAfAmAfUmAfUmGfUmUfGmA*fG*mC; sense {NAG37}*[invAb]*mGmCmUmCmAmAmCmAfUfAfUmUmUmGmAmUmCmAmGmUmA*[invAb])
Average Triglycerides Normalized to Pre-Treatmen and Control (ANGPTL3 gene [1]; Day 8): 1.125 | Average Triglycerides Normalized to Pre-Treatmen and Control (ANGPTL3 gene [1]; Day 15): 0.930 | Average Triglycerides Normalized to Pre-Treatmen and Control (ANGPTL3 gene [1]; Day 22): 1.631 | Average Triglycerides Normalized to Pre-Treatmen and Control (ANGPTL3 gene [1]; Day 29): 0.854 | Avg LDL Normalized to Pre-Treatment and Control (ANGPTL3 gene [2]; Day 8): 0.878 | Avg LDL Normalized to Pre-Treatment and Control (ANGPTL3 gene [2]; Day 15): 0.744 | Avg LDL Normalized to Pre-Treatment and Control (ANGPTL3 gene [2]; Day 22): 0.848 | Avg LDL Normalized to Pre-Treatment and Control (ANGPTL3 gene [2]; Day 29): 0.755 | Average ANGPTL3 Protein Normalized to Pre-Treatment and Control (ANGPTL3 protein; Day 8): 0.145 | Average ANGPTL3 Protein Normalized to Pre-Treatment and Control (ANGPTL3 protein; Day 15): 0.170 | Average ANGPTL3 Protein Normalized to Pre-Treatment and Control (ANGPTL3 protein; Day 22): 0.214 | Average ANGPTL3 Protein Normalized to Pre-Treatment and Control (ANGPTL3 protein; Day 29): 0.246 | Average Total Cholesterol Normalized to Pre-Treatment and Control (ANGPTL3 gene [3]; Day 8): 0.664 | Average Total Cholesterol Normalized to Pre-Treatment and Control (ANGPTL3 gene [3]; Day 15): 0.694 | Average Total Cholesterol Normalized to Pre-Treatment and Control (ANGPTL3 gene [3]; Day 22): 0.631 | Average Total Cholesterol Normalized to Pre-Treatment and Control (ANGPTL3 gene [3]; Day 29): 0.677 | Average HDL Normalized to Pre-Treatment and Control (ANGPTL3 gene [4]; Day 8): 0.632 | Average HDL Normalized to Pre-Treatment and Control (ANGPTL3 gene [4]; Day 15): 0.674 | Average HDL Normalized to Pre-Treatment and Control (ANGPTL3 gene [4]; Day 22): 0.563 | Average HDL Normalized to Pre-Treatment and Control (ANGPTL3 gene [4]; Day 29): 0.679
